Measurements taken from patent US10570141B2, “Substituted pyrrolopyrimidine CDK inhibitor, pharmaceutical composition containing same and use thereof” (CHIA TAI TIANQING PHARMACEUTICAL GROUP CO., LTD., priority 2016, dated 2020).
Where a name gives a salt, the structure may show the parent alone. Read-outs that look alike come from different tables or passages of the source.

Assays:
[1] = rat, in vivo, po, 5 mg/kg
Procedure: (§4) 3 Healthy adult male rats were used for each tested compound. The tested compound was suspended in 20% sulfobutyl ether-β-cyclodextrin at a concentration of 1 mg/mL, and then was intragastrically administered at a single dose of 5 mg/kg (administered volume: 5 mL/kg). The animals to be intragastrically administered were fasted overnight prior to the experiment, i.e., fasted from 10 h prior to the administration to 4 h after the administration, and blood samples were collected in 0.25, 0.5, 1, 2, 4, 6, 8 and 24 h after the intragastric administration. About 0.3 mL of whole blood was collected from the orbital venous plexus, and put in a heparin anticoagulant tube. The sample was centrifuged at 4° C. at 4000 rpm for 5 min. The plasma was transferred to a centrifuge tube, and kept at −80° C. until analysis. Concentration of the tested compound in the plasma sample was analyzed using non-validated liquid chromatography-tandem mass spectrometry (LC-MS/MS). Plasma concentration-time data of individual animals were analyzed using WinNonlin (Professional Edition, Version 6.3; Pharsight Corporation) software. A non-compartment model was used for concentration analysis.

[2] = Pharmacokinetics evaluation in rats after intragastric administration; conditions: male, rat, plasma, po, 5 mg/kg
Procedure: as §4

[3] = target: CDK6/CyclinD3 (Homo sapiens (Human), UniProt Q00534); assay: In vitro kinase activity inhibition assay of CDK6/CyclinD3 (LANCE method); assay type: biochemical; conditions: recombinant CDK6/CyclinD3 4 nM, ATP 200 μM, 1 h room temperature
Sequence of CDK6/CyclinD3 (Q00534 whole entry): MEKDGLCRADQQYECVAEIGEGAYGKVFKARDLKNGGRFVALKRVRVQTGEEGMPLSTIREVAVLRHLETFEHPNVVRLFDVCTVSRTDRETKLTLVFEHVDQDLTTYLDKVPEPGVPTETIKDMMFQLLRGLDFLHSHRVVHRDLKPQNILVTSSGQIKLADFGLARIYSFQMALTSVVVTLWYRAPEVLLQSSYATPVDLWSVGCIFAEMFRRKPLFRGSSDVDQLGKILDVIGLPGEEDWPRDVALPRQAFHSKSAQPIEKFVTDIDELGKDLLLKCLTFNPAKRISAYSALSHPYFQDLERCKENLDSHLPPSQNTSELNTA
Sequence of CDK6/CyclinD3 (P30281 whole entry partner): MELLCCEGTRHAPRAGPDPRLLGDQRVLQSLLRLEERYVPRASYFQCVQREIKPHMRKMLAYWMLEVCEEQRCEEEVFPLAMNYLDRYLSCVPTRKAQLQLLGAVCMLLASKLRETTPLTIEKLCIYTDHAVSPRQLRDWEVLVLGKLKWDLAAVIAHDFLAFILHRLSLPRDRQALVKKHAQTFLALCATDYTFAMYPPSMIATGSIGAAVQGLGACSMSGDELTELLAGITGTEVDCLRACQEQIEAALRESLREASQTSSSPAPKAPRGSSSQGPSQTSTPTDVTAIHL
Text: (§1) A method for in vitro kinase activity inhibition assay of CDK4/CyclinD3 and CDK6/CyclinD3 is established as follows:
(§2) LANCE method of PerkinElmer Inc. was used in the assay, and recombinant CDK4/CyclinD3 (Item No.: 04-105) and CDK6/CyclinD3 (Item No.: 04-107) kinases were purchased from Cama Biosciences, Inc. Substrate ULight-MBP (Item No.: TRF0109) and Eu-labeled anti-MBP antibody (Item No.: TRF0201) were purchased from PerkinElmer. HEPES PH7.5 (Item No.: #15630080), DTT (Item No.: # D1532), MgCl2 (Item No.: # AM9530G), EGTA (Item No.: # E1219), and EDTA (Item No.: # AM9260G) were purchased from Life Technology. Firstly, a 1× buffer solution A (50 mM HEPES, PH 7.5, 10 mM MgCl2, 1 mM EGTA, 0.01% Tween 20 and 2 mM DTT) was prepared. A compound to be tested was dissolved in DMSO to 1 mM, serially diluted with DMSO, and then diluted 25-fold with the buffer solution A (final concentration of DMSO: 1%). CDK4/CyclinD3 and CDK6/CyclinD3 were diluted respectively with the buffer solution A. Finally, the buffer solution A was used to prepare the substrate and ATP. 4 μl of CDK4/CyclinD3 (final concentration: 2 nM) or CDK6/CyclinD3 (final concentration: 4 nM), 2 μl of the diluted compound, and 4 μl of a mixture of the substrate (final concentration: 50 nM) and ATP (final concentration: 200 μM) were added to reaction wells, and the resulting mixture was kept at room temperature to react for 1 h. Then, an EDTA solution was added to terminate the reaction, and Eu-labeled anti-MBP antibody was added and the resulting mixture was incubated at room temperature for additional 1 h. EnVision was used to read fluorescent signals (excitation wavelength: […], emission wavelength: […]).

[4] = test system: MCF7 cells; assay: Inhibition of proliferation of breast cancer cell line MCF7 (Cell-Titer Glo); assay type: cell-based, human; conditions: 72 hours incubation, cell viability
Procedure: (§3) Colo-205 (Crown Bioscience Inc.) and MCF7 (Beijing Jinzijing Biology Medicine Technology Co., Ltd.) cells were inoculated into a 96-well plate (Corning, Item No.: 3599) at a density of 1000 cells/well, and incubated overnight. A compound at different concentrations (10000 nM, 3000 nM, 1000 nM, 300 nM, 100 nM, 30 nM, 10 nM, 3 nM, 1 nM, 0.3 nM, 0 nM, final concentration of DMSO: 0.1%) was added on the next day, and the incubation was continued for additional 72 hours. The culture medium was sucked with a vacuum pump, 50 ul of Cell-Titer Glo reagent (Promega, Item No.: G7572) was added to each well, and shaken for 10 min. Chemiluminescent signals were collected by EnVision® Multilabel Reader (PerkinElmer Inc.) to detect the cell viability and calculate the half maximal inhibitory concentration of the compound for inhibiting cell proliferation.

[5] = test system: Colo-205 cells; assay: Inhibition of proliferation of colon cancer cell line Colo-205 (Cell-Titer Glo); assay type: cell-based, human; conditions: 72 hours incubation, cell viability, read-out: IC50(Colo205)
Procedure: as §3

[6] = target: CDK4/CyclinD3 (Homo sapiens (Human), UniProt P11802); assay: In vitro kinase activity inhibition assay of CDK4/CyclinD3 (LANCE method); assay type: biochemical; conditions: recombinant CDK4/CyclinD3 2 nM, ATP 200 μM, 1 h room temperature
Sequence of CDK4/CyclinD3 (P11802 whole entry): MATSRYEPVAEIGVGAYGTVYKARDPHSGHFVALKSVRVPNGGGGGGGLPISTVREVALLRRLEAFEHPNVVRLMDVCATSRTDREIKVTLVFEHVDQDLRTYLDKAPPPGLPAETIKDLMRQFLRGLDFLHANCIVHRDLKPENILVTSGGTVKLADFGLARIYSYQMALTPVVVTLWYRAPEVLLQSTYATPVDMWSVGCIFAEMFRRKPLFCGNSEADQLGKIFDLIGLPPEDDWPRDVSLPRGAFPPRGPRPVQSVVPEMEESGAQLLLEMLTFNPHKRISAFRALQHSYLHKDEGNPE
Sequence of CDK4/CyclinD3 (P30281 whole entry partner): as the sequence (P30281 whole entry partner) above
Text: as §1, §2

Structure (SMILES)	IC50 [3] [nM]	IC50 [6] [nM]	AUC(0-inf) [2] [ng·h/mL]	Cmax [2] [ng/mL]	Tmax [2] [h]	half-life [2] [h]	IC50 ([4]; Homo sapiens) [nM]	IC50 ([5]; Homo sapiens) [nM]	also measured
CN(C)C(=O)c1cc2cnc(Nc3ccc(N4CCNCC4)cn3)nc2n1C1CCCC1.Cl [Comparative Example 1]									AUC(0-inf) [1]: 120 ng·h/mL; Cmax [1]: 15.8 ng/mL; T1/2 [1]: 4.25 h; Tmax [1]: 2.67 h
CS(=O)(=O)c1cc2cnc(Nc3ccc(C4=CCNCC4)cn3)nc2n1C1CCCC1.Cl [Example 4, 7-cyclopentyl-6-methylsulfonyl-N-(5-(1,2,3,6-4H-pyridin-4-yl)pyridin-2-yl)-7H-pyrrolo[2,3-d]pyrimidin-2-amine hydrochloride]	11.1	2.57	889	90	3	3.28	175	312	
CN(C)C(=O)c1cc2cnc(Nc3ccc(N4CCNCC4)cn3)nc2n1C1CCCC1.Cl [Comparative Example 1, 7-cyclopentyl-2-(5-(piperazin-1-yl-pyridin-2-ylamino)-7H-pyrrolo[2,3-d]pyrimidine-6-carboxylic acid dimethylamide (ribociclib) hydrochloride]									IC50 [4]: 326 nM; IC50 [5]: 2690 nM
CN(C)C(=O)c1cc2cnc(Nc3ccc(C4=CCNCC4)cn3)nc2n1C1CCCC1.Cl [Example 6, 7-cyclopentyl-6-N,N-dimethylcarbamoyl-N-(5-(1,2,3,6-4H-pyridin-4-yl)pyridin-2-yl)-7H-pyrrolo[2,3-d]pyrimidin-2-amine hydrochloride]	30.6	2.37	627	74.3	3.33	3.76	333	1260	

Continued, in another order:

IC50 [3] [nM]	IC50 [6] [nM]	Structure (SMILES)	AUC(0-inf) [2] [ng·h/mL]	Cmax [2] [ng/mL]	Tmax [2] [h]	half-life [2] [h]	IC50 ([4]; Homo sapiens) [nM]	IC50 ([5]; Homo sapiens) [nM]	also measured
5.7	0.8	CS(=O)(=O)c1cc2cnc(Nc3ccc(N4CCNCC4)cn3)nc2n1C1CCCC1 [Example 1, 7-cyclopentyl-6-methylsulfonyl-N-(5-(piperazin-1-yl)pyridin-2-yl)-7H-pyrrolo[2,3-d]pyrimidin-2-amine hydrochloride]	1960	255	1.33	7.23	114	271	
21	2.12	CCS(=O)(=O)c1cc2cnc(Nc3ccc(N4CCNCC4)cn3)nc2n1C1CCCC1 [Example 2, 7-cyclopentyl-6-ethylsulfonyl-N-(5-(piperazin-1-yl)pyridin-2-yl)-7H-pyrrolo[2,3-d]pyrimidin-2-amine hydrochloride]							
9.85	1.46	CS(=O)(=O)c1cc2cnc(Nc3ccc(C4CCNCC4)cn3)nc2n1C1CCCC1 [Example 5, 7-cyclopentyl-6-methylsulfonyl-N-(5-(piperidin-4-yl)pyridin-2-yl)-7H-pyrrolo[2,3-d]pyrimidin-2-amine hydrochloride]						470	
18.7	3.4	CN(C)C1CCN(c2ccc(Nc3ncc4cc(S(C)(=O)=O)n(C5CCCC5)c4n3)nc2)CC1 [Example 3, 7-cyclopentyl-6-methylsulfonyl-N-(5-(4-(dimethylamino)piperidin-1-yl)pyridin-2-yl)-7H-pyrrolo[2,3-d]pyrimidin-2-amine hydrochloride]							
